# In patent EP0974573A1, “PHENYLPROPENONE COMPOUNDS AND MEDICINES CONTAINING THE SAME” (Kabushiki Kaisha Yakult Honsha, priority 1997, dated 1998):
# Experiments:
# [1] = test system: rat-derived ACAT; assay: Inhibitory effects on rat-derived ACAT (Test 1); type: biochemical; settings: crude enzyme from microsome protein fractions of rat liver, (14C)-oleoyl-CoA substrate, 37°C
# Description: To test effects on ACAT, a reaction was conducted in vitro to form (^14C)-cholesteryl oleate from endogeneous cholesterol in the presence of (^14C)-oleoyl-CoA as a substrate by using a crude enzyme prepared from microzome protein fractions of a rat liver.
# The reaction mixture had the following composition: 20 µℓ of microsome protein (1.83 mg/mℓ), 20 µℓ of (^14C)-oleoyl-CoA (5 µCi/mℓ, BSA: 96 nmol/mℓ), 106 µℓ of 100 mM phosphate buffer (containing 5 mM of dithiothreitol, pH 7.4) and a sample dissolved in 4 µℓ of methanol or dimethyl sulfoxide; 150 µℓ in total.
# The reaction was conducted at 37°C. After an elapse of a predetermined reaction time (18 minutes in general), a 2:1 mixture of chloroform and methanol (5.65 mℓ) was added to terminate the reaction. A 0.04 N aquous solution of hydrochloric acid (0.98 mℓ) and as a carrier, cholesteryl oleate were added, followed by extraction for 20 minutes on a shaking apparatus. The mixture was then allowed to stand overnight in a cold dark place. On the following day, the separated lower chloroform layer was extracted in its entirety and was dried under a nitrogen gas stream. The remaining upper layer was added with the lower layer (5.65 mℓ) of the Folch's partition solution, and was extracted again. After the mixture was allowed to stand overnight in a dark place, the lower layer was drawn in its entirety. This lower layer was combined with the lower chloroform layer fraction, which had already been dried to solid, and the mixture was then dried to solid.
# The solid was then dissolved in chlorofrom (200 µℓ), and the solution was coated in its entirety on a G60 plate (aluminum sheet) for silica gel thin layer chromatography. After the solid was developedover 10 cm with a 10:190 mixture of diethyl ether and petroleum ether, autoradiography was conducted and the formation of (^14C)-colesteryl oleate was confirmed. This section was then cut off. The radioactivity of each sample was measured by subjecting it to liquid scintillation counting for 5 minutes in toluene or was measured for 30 minutes by a "Betascope" (manufactured by BETA-GEN INC. The results so obtained are shown in Table 1. Table 1
# [2] = test system: SD rats; assay: Plasma cholesterol elevation inhibitory effects on rats loaded with high cholesterol diet, feed-mixed administration (Test 3); type: in vivo, rat; settings: 0.005% of compound added to hyperlipemia inducing diet, ad libitum 3 days
# Description: Using 5-week old male SD rats (120-150 g, 10 rats per group, individual feeding), plasma cholesterol elevation inhibitory effects of various compounds in the Examples on rats were studied. To a control group, a feed which had been prepared by adding 1.5% of cholesterol, 0.5% of cholic acid, 10% of coconut oil and 10% of sugar to "F-2 Diet" (product of FUNABASHI FARM CO., LTD.) was given ad libitum as a hyperlipemia inducing diet.
# To each test-compound-administered group, on the other hand, a feed which had been prepared by adding 0.005% of the corresponding compound in the Examples to the hyperlipemia inducing diet of the above-described composition was given ad libitum. Further, a normal diet group to which a feed similar to the hyperlipemia inducing diet except for the exclusion of cholesterol was also tested similarly. As a testing method, after these feeds were given ad libitum for 3 days, bloods were drawn on the 4th day from the abdominal aortas of the individual rats under anesthesia with Nembutal. Subsequent to collection of plasma from each blood sample, the plasma cholesterol was quantitated by a "DETERMINER TC555 KIT" (product of Kyowa Medex Co., Ltd.) while the HDL cholesterol was quantitated by "DETERMINER HDL KIT" (product of Kyowa Medex Co., Ltd.). The liver cholesterol was measured by extracting it in accordance with the Folch's method and then measuring it with a "DETERMINER TC555 KIT". Statistical processing of the data so obtained was conducted by the Danett's test.
# [3] = test system: SD rats; assay: Provisional toxicity test of Compound 6; type: in vivo, rat; settings: female SD rats, oral by stomach tube in 1.5% CMC, 14 days or 28 days, 100, 250 or 250 mg/kg/day
# Description: Concerning Compound 6, a provisional toxicity test was conducted.
# Using female SD rats (5-weeks old), the test was conducted at a size of 6 rats per group. The animals were subjected to group feeding, and were allowed to take both "F-2 Feed" (product of FUNABASHI FARM CO., LTD.) and tap water ad libitum.
# Compound 6 which had been suspended in a 1.5% aqueous solution of CMC was continuously and orally administered by a stomach tube for 14 days or 28 days such that the dosage became 100, 250 or 250 mg/kg/day. To a control group, on the other hand, an aqueous solution of CMC was administered.
# Therefore, safety has been confirmed.
# [4] = test system: SD rats; assay: Plasma cholesterol elevation inhibitory effects of Compound 6 on rats, oral suspension in carboxymethylcellulose (Test 10); type: in vivo, rat; settings: 7 days; for HDLC: plasma HDL cholesterol; for PL: plasma phospholipid; for TC: plasma total cholesterol; for TG: plasma triglyceride
# Description: Using 5-week old male SD rats (120-150 g, 8 rats per group, group feeding), plasma cholesterol elevation inhibitory effects of compound 6 in Examples on rats were studied.
# To rats in a control group, only a 1.5% aqueous solution of carboxymethylcellulose was orally administered once a day for 7 days. During the last 3 days, a hyperlipemia inducing diet [a feed prepared by adding 1.5% of cholesterol, 0.5% of cholic acid, 10% of coconut oil and 10% of sugar to "F-2 Diet" (product of FUNABASHI FARM CO., LTD.)] was given ad libitum. To rats in a control group (normal diet), however, a feed (normal diet) similar to the hyperlipemia inducing diet except for the exclusion of cholesterol was given ad libitum.
# To test-compound-administered groups, on the other hand, compound 6 suspended in a 1.5% aqueous solution of carboxymethylcellulose was continuously and orally administered at dosages of 5, 10 and 20 mg/kg/day, respectively, once a day for 7 days. During the last 3 days, a hyperlipemia inducing diet [a feed prepared by adding 1.5% of cholesterol, 0.5% of cholic acid, 10% of coconut oil and 10% of sugar to "F-2 Diet" (product of FUNABASHI FARM CO., LTD.)] was given ad libitum.
# On the 4th day after the initiation of feeding of the hyperlipemia inducing diet and the normal diet, bloods were drawn from the abdominal aortas of the individual rats under anesthesia with Nembutal. Subsequent to collection of plasma from each blood sample, the plasma cholesterol was quantitated by an "AUTOSERA S-CHO KIT" (product of Daiichi Pure Chemicals Co., Ltd.), the plasma triglyceride was guantitated by an "AUTOSERA TG-N KIT" (product of Daiichi Pure Chemicals Co., Ltd.), and the plasma phospholipid was quantitated by an "AUTOSERA PL KIT" (product of Daiichi Pure Chemicals Co., Ltd.). Further, the HDL cholesterol was quantitated by an "AUTOSERA S-CHO KIT" (product of Daiichi Pure Chemicals Co., Ltd.) after fractionating it by a "DETERMINER HDL KIT" (product of Kyowa Medex Co., Ltd.). The liver lipid level was quantitated by a commercial measuring kit in a similar manner as in the measurement of plasma lipid subsequent to its extraction by the Folch's method. Statistical processing of the data so obtained was conducted by the Dunnet's test.
# [5] = 5 mg/kg oral in carboxymethylcellulose
# [6] = 10 mg/kg oral in carboxymethylcellulose
# [7] = 20 mg/kg oral in carboxymethylcellulose
compound,measurement,setting,value
"CCCCCCCCOc1c(OC)cc(/C=C/C(=O)NN2CCN(c3ccc(C)c(C)c3)CC2)cc1OC [Compound 6, N-[4-(3,4-dimethylphenyl)-1,4-diazacyclohexyl]-(2E)-3-(3,5-dimethoxy-4-octyloxyphenyl)-2-propenamide]",IC50,[1],11 nM
same,Inhibitory rate (%) of plasma total cholesterol elevation in rat,[2],79%
same,difference between administered groups and control group in external appearance and results of various biochemical tests,[3],no difference was observed
same,Inhibitory rate (%) of plasma total cholesterol elevation,[4]; 5 mg/kg/day oral in 1.5% carboxymethylcellulose,34%
same,Inhibitory rate (%) of plasma total cholesterol elevation,[4]; 10 mg/kg/day oral in 1.5% carboxymethylcellulose,57%
same,Inhibitory rate (%) of plasma total cholesterol elevation,[4]; 20 mg/kg/day oral in 1.5% carboxymethylcellulose,66%
same,HDLC,[4]; [5],19.3 ± 4.5 mg/dL
same,HDLC,[4]; [6],20.5 ± 4.0 mg/dL
same,HDLC,[4]; [7],22.8 ± 2.2 mg/dL
same,PL,[4]; [5],243.2 ± 42.5 mg/dL
same,PL,[4]; [6],206.7 ± 50.6 mg/dL
same,PL,[4]; [7],203.6 ± 21.3 mg/dL
same,TC,[4]; [5],303.1 ± 99.4 mg/dL
same,TC,[4]; [6],226.6 ± 94.7 mg/dL
same,TC,[4]; [7],196.8 ± 44.1 mg/dL
same,TG,[4]; [5],202.3 ± 99.7 mg/dL
same,TG,[4]; [6],159.0 ± 68.6 mg/dL
same,TG,[4]; [7],187.6 ± 79.3 mg/dL
